The conditions of series [1]: cn_pd bond, 14-membered ring, 1,4-dioxane.
In a further series the test system is INFα induced pSTAT5. As to the kind of experiment: INFα induced pSTAT5 in human PBMC. The class given is cell-based. The following applies: Homo sapiens, PBMC, INFα 5000 units/ml, read-out: p-STAT5 IC50. As for the experimental part:
Fresh Human PBMCs were resuspended in RPMI 1640 medium with 10% FBS. Cells were seeded in a round bottom 96-well plate at the concentration of 200,000 cells/well. A 10-point dilution series of test compound (top dose 10 uM, 1:5 dilution) was added to the well using the liquid dispenser (Tecan D300e) and incubated for 1 hour at 37 C. Then human INFα recombinant protein (R&D Systems) was added to the well at the final concentration of 5000 units/ml and incubated for 15 minutes at 37 C. Cell lysates were prepared and analyzed by Phospho STAT3 (Tyr705) cellular kit (Cisbio) or Phospho STAT5 (Tyr693) Kit (Meso Scale Discovery) following manufacturer's protocol.
For calculation of the inhibition rate, the relative pSTAT signal of each well=pSTAT signal of each well−the average pSTAT signal of baseline.
The inhibition %=(the average pSTAT signal of INFα treatment wells—the relative of pSTAT signal in each compound containing well)/the average pSTAT signal of INFα treatment wells * 100%
The curve was plotted as the inhibition % (y-axis) vs. compounds concentration (x-axis) and was fitted with log(inhibitor) vs. normalized response—Variable slope by GraphPad Prism7.0.

The nature of series [2]: Pharmacokinetic studies in Sprague Dawley rats. The class given is in vivo. The settings on record: rat, plasma, male Sprague Dawley rats. As for the experimental part:
The pharmacokinetics of test compounds were evaluated in male Sprague Dawley rats when administered via oral gavage and IV injection. The test compound was suspended in 0.5% methylcellulose for oral gavage and dissolved in 5% DMSO/5% Solutol/90% saline for IV injection. The animals were fasted overnight before administration. Plasma samples were collected predose and at 0.5, 1, 3, 6, 9, 12, and 24 hours postdose. The samples were analyzed by LC/MS/MS and the concentration of test compound at each timepoint was determined by linear regression. Pharmacokinetic parameters were calculated from the plasma concentrations using Pheonix WinNonlin.

Where two headings read alike, the source gives them in different places.

A word on the IC50: it is the concentration that gives 50% inhibition. Broadly, the AUC is the area under the concentration-time curve, a measure of exposure. The low end stands for low exposure, the high end for high exposure. In general, clearance refers to a measure of how efficiently the substance is removed, as volume per time. Read a low clearance as inefficient removal. The term half-life denotes the time needed for the level to fall by half in the phase considered. Read a high half-life as slow decline. As a reminder, the Cmax is the maximum level reached in the sampled fluid or tissue. Broadly, the Tmax is the time at which the peak concentration occurs. As a reminder, the bioavailability is the share of a dose that reaches the circulation, judged against a reference dose that is usually intravenous. Low values mean little systemic uptake, high ones much systemic uptake.

Molecule `COc1c(F)cc2cc1Nc1cc(N(C)C(=O)OC(C)(C)C)n3ncc(c3n1)C(=O)N[C@H](C)COC2` had a ring closure, isolated yield in series [1] (from COc1c(N)cc(COC[C@@H](C)NC(=O)c2cnn3c(N(C)C(=O)OC(C)(C)C)cc(Cl)nc23)cc1F, tBuXPhos-Pd-G3/Cs2CO3, 8.4 mM, 80.0 °C, 2.0 h) of 52.5%.

`COc1c(F)cc2cc1Nc1cc(NC(=O)OC(C)(C)C)c3ncc(n3n1)C(=O)N[C@H](C)COC2`: in series [1] (from COc1c(N)cc(COC[C@@H](C)NC(=O)c2cnc3c(NC(=O)OC(C)(C)C)cc(Cl)nn23)cc1F, tBuXPhos-Pd-G3/Cs2CO3, 8.4 mM, 80.0 °C, 2.0 h), the ring closure, isolated yield was determined as 52.5%.

`COc1c2cc(c(F)c1F)COC[C@@H](C)NC(=O)c1cnc3c(NC(=O)OC(C)(C)C)cc(nn13)N2` had a ring closure, isolated yield in series [1] (from COc1c(N)cc(COC[C@@H](C)NC(=O)c2cnc3c(NC(=O)OC(C)(C)C)cc(Cl)nn23)c(F)c1F, tBuXPhos-Pd-G3/Cs2CO3, 3.5 mM, 80.0 °C, 2.0 h) of 47%.

For the molecule `COc1cc(F)c2cc1Nc1cc(N(C)C(=O)OC(C)(C)C)c3ncc(n3n1)C(=O)NC(C)COC2` (centres unmarked), in series [1] (from COc1cc(F)c(COCC(C)NC(=O)c2cnc3c(N(C)C(=O)OC(C)(C)C)cc(Cl)nn23)cc1N, tBuXPhos-Pd-G3/Cs2CO3, 4.1 mM, 85.0 °C, 2.0 h), the ring closure, isolated yield was determined as 53.6%.

The molecule `COc1cc(F)c2cc1Nc1cc(N(C)C(=O)OC(C)(C)C)n3ncc(c3n1)C(=O)N[C@H](C)COC2` gave a ring closure, isolated yield in series [1] (from COc1cc(F)c(COC[C@@H](C)NC(=O)c2cnn3c(N(C)C(=O)OC(C)(C)C)cc(Cl)nc23)cc1N, Pd2(dba)3/XPhos/Cs2CO3, 23.3 mM, 90.0 °C, 1.0 h) of 74%.

As for `COc1cc(F)c2cc1Nc1cc(NC(=O)OC(C)(C)C)c3ncc(n3n1)C(=O)N[C@H](C)COC2`, in series [1] (from COc1cc(F)c(COC[C@@H](C)NC(=O)c2cnc3c(NC(=O)OC(C)(C)C)cc(Cl)nn23)cc1N, tBuXPhos-Pd-G3/Cs2CO3, 10.25 mM, 80.0 °C, 2.0 h), the ring closure, isolated yield was 56.1%.

`COc1cc2cnn3c2cc1Nc1cc(N(C)C(=O)OC(C)(C)C)c2ncc(n2n1)C(=O)NC(C)CC3` (centres unmarked) had a ring closure, isolated yield in series [1] (from COc1cc2cnn(CCC(C)NC(=O)c3cnc4c(N(C)C(=O)OC(C)(C)C)cc(Cl)nn34)c2cc1N, tBuXPhos-Pd-G3/Cs2CO3, 25.0 mM, 80.0 °C, 3.0 h) of 59%.

`COc1ccc2cc1Nc1cc(N(C)C(=O)OC(C)(C)C)c3ncc(n3n1)C(=O)NC1(CC1)COC2` displayed a ring closure, isolated yield in series [1] (from COc1ccc(COCC2(NC(=O)c3cnc4c(N(C)C(=O)OC(C)(C)C)cc(Cl)nn34)CC2)cc1N, tBuXPhos-Pd-G3/Cs2CO3, 15.0 mM, 85.0 °C, 2.0 h) of 58.7%.

In turn, `COc1ccc2cc1Nc1cc(N(C)C(=O)OC(C)(C)C)c3ncc(n3n1)C(=O)N[C@H](C)CN(C)C2` showed a ring closure, isolated yield in series [1] (from COc1ccc(CN(C)C[C@@H](C)NC(=O)c2cnc3c(N(C)C(=O)OC(C)(C)C)cc(Cl)nn23)cc1N, Pd2(dba)3/XPhos/Cs2CO3, 56.0 mM, 95.0 °C, 3.5 h) of 10.8%.

On to `COc1ccc2nc1Nc1cc(N(C)C(=O)OC(C)(C)C)n3ncc(c3n1)C(=O)N[C@H](C)COC2`, for which the ring closure, isolated yield in series [1] (from COc1ccc(COC[C@@H](C)NC(=O)c2cnn3c(N(C)C(=O)OC(C)(C)C)cc(Cl)nc23)nc1N, Pd2(dba)3/XPhos/Cs2CO3, 6.3 mM, 95.0 °C, 3.5 h) was 84.2%.

The molecule `COc1nnc2cc1Nc1cc(N(C)C(=O)OC(C)(C)C)n3ncc(c3n1)C(=O)N[C@H](C)COC2` gave a ring closure, isolated yield in series [1] (from COc1nnc(COC[C@@H](C)NC(=O)c2cnn3c(N(C)C(=O)OC(C)(C)C)cc(Cl)nc23)cc1N, tBuXPhos-Pd-G3/Cs2CO3, […], 80.0 °C, 2.0 h) of 21.7%.

Take `C[C@@H]1COCc2cc(c(=O)n(C)n2)Nc2cc(N(C)C(=O)OC(C)(C)C)c3ncc(n3n2)C(=O)N1`: the ring closure, isolated yield in series [1] (from C[C@H](COCc1cc(N)c(=O)n(C)n1)NC(=O)c1cnc2c(N(C)C(=O)OC(C)(C)C)cc(Cl)nn12, tBuXPhos-Pd-G3/Cs2CO3, […], 80.0 °C, 2.0 h) amounted to 78.2%.

As to `C[C@@H]1COCc2cc(c(=O)n(C)n2)Nc2cc(N(C)C(=O)OC(C)(C)C)n3ncc(c3n2)C(=O)N1`, the ring closure, isolated yield in series [1] (from C[C@H](COCc1cc(N)c(=O)n(C)n1)NC(=O)c1cnn2c(N(C)C(=O)OC(C)(C)C)cc(Cl)nc12, tBuXPhos-Pd-G3/Cs2CO3, 19.0 mM, 85.0 °C, 2.0 h) worked out at 70%.

`C[C@@H]1COCc2cc(c3cn(C)nc3c2)Nc2cc(N(C)C(=O)OC(C)(C)C)n3ncc(c3n2)C(=O)N1` had a ring closure, isolated yield in series [1] (from C[C@H](COCc1cc(N)c2cn(C)nc2c1)NC(=O)c1cnn2c(N(C)C(=O)OC(C)(C)C)cc(Cl)nc12, Pd2(dba)3/XPhos/Cs2CO3, 18.0 mM, 95.0 °C, 3.5 h) of 82.2%.

As for `C[C@@H]1COCc2cc(c3nccn3c2)Nc2cc(N(C)C(=O)OC(C)(C)C)n3ncc(c3n2)C(=O)N1`, in series [1] (from C[C@H](COCc1cc(N)c2nccn2c1)NC(=O)c1cnn2c(N(C)C(=O)OC(C)(C)C)cc(Cl)nc12, tBuXPhos-Pd-G3/Cs2CO3, 11.5 mM, 80.0 °C, 2.0 h), the ring closure, isolated yield was 72%.

Regarding `C[C@@H]1COCc2ccc(F)c(c2)Nc2cc(N(C)C(=O)OC(C)(C)C)n3ncc(c3n2)C(=O)N1`, the ring closure, isolated yield in series [1] (from C[C@H](COCc1ccc(F)c(N)c1)NC(=O)c1cnn2c(N(C)C(=O)OC(C)(C)C)cc(Cl)nc12, tBuXPhos-Pd-G3/Cs2CO3, 20.0 mM, 85.0 °C, 2.0 h) came out at 30%.

Turning to `Cc1cc2nc(n1)COC[C@@H](C)NC(=O)c1cnc3c(N(C)C(=O)OC(C)(C)C)cc(nn13)N2`, in series [1] (from Cc1cc(N)nc(COC[C@@H](C)NC(=O)c2cnc3c(N(C)C(=O)OC(C)(C)C)cc(Cl)nn23)n1, Pd2(dba)3/XPhos/Cs2CO3, 40.0 mM, 80.0 °C, 1.0 h), the ring closure, isolated yield was 53%.

`CNc1cc2nn3c(cnc13)C(=O)N[C@H](C)COCc1cc(c(=O)n(C)c1)N2` [Example 15]: the IC50 in the series on INFα induced pSTAT5 came to 5.1 nM. In series [2] (iv, I.V. (1 mg/kg)), this molecule gave an AUC of 472 ± 93 ng·h/mL, a C0 of 539 ± 54 ng/mL, a clearance of 36.1 ± 8 mL/min/kg and a half-life of 1.02 ± 0.059 h. Moreover, the Vd in series [2] (iv, I.V. (1 mg/kg), read-out: Vdss) is 2.17 ± 0.08 L/kg. Besides, in series [2] (Oral (5 mg/kg)), the AUC was 147 ± 40 ng·h/mL, the highest level (Cmax) was 22.2 ± 5 ng/mL, the Tmax was found to be 2.67 ± 1.2 h and the bioavailability came to 6.23 ± 1.7%. In series [2] (Oral (5 mg/kg)), this molecule showed a half-life of 4.11 ± 1.9 h.

Regarding `COc1ccc2nc1Nc1cc(N)n3ncc(c3n1)C(=O)N[C@H](C)COC2` [Example 55, (R, 1^3E, 1^4E)-33-methoxy-7-methyl-1^7-(methylamino)-5-oxa-2,8-diaza-1(5,3)-pyrazolo[1,5-a]pyrimidina-3(2,6)-pyridinacyclononaphan-9-one], the IC50 with INFα induced pSTAT5 was more than 200 nM.

Consider `CNc1cc2nc3c(cnn13)C(=O)N[C@H](C)COCc1ccc(F)c(c1)N2` [Example 56, (R, 1^3E, 1^4E)-3^6-fluoro-7-methyl-1^7-(methylamino)-5-oxa-2,8-diaza-1(5,3)-pyrazolo[1,5-a]pyrimidina-3(1,3)-benzenacyclononaphan-9-one], for which the IC50 with INFα induced pSTAT5 was 28.8 nM.

On to `CNc1cc2nc3c(cnn13)C(=O)N[C@H](C)COCc1cc(c(=O)n(C)n1)N2` [Example 57, (R,1^3E,1^4E,3^4E)-31,7-dimethyl-1^7-(methylamino)-3^1,3^6-dihydro-5-oxa-2,8-diaza-1(5,3)-pyrazolo[1,5-a]pyrimidina-3(5,3)-pyridazinacyclononaphane-36,9-dione], for which, in the series with INFα induced pSTAT5, the IC50 is 21.2 nM.

As to `CNc1cc2nn3c(cnc13)C(=O)N[C@H](C)COCc1cc(c(=O)n(C)n1)N2` [Example 58, (15E,34E,7R)-31,7-dimethyl-18-(methylamino)-31,36-dihydro-5-oxa-2,8-diaza-1(6,3)-imidazo[1,2-b]pyridazina-3(5,3)-pyridazinacyclononaphane-36,9-dione], the IC50 in the series on INFα induced pSTAT5 was 7.7 nM.

Turning to `CNc1cc2nc3c(cnn13)C(=O)N[C@H](C)COCc1cc(c(OC)nn1)N2` [Example 59, (R,1^3E,1^4E)-3^6-methoxy-7-methyl-1^7-(methylamino)-5-oxa-2,8-diaza-1(5,3)-pyrazolo[1,5-a]pyrimidina-3(5,3)-pyridazinacyclononaphan-9-one], the IC50 in the series with INFα induced pSTAT5 amounted to 39.1 nM.

Take `CNc1cc2nc3c(cnn13)C(=O)N[C@H](C)COCc1cc(c3nccn3c1)N2` [Example 60, (R,1^3E,1^4E,3^7E)-7-methyl-1^7-(methylamino)-5-oxa-2,8-diaza-1(5,3)-pyrazolo[1,5-a]pyrimidina-3(8,6)-imidazo[1,2-a]pyridinacyclononaphan-9-one]: the IC50 with INFα induced pSTAT5 is 3.8 nM.

For the molecule `CNc1cc2nc3c(cnn13)C(=O)N[C@H](C)COCc1cc(F)c(OC)c(c1)N2` [Example 62], the IC50 in the series with INFα induced pSTAT5 was found to be 3.8 nM.

The record behind these values is US20250276977A1, “TYK2 INHIBITORS AND USES THEREOF” (Alumis Inc., priority 2019, published 2025).
